Experiment: MALDI-TOF screening of Ni^2+ dependent hydrolysis in a combinatorial peptide library
Assay type: physicochemical
Details: CH3CO-Gly-Ala-Ser-X-His-Z-Lys-Phe-Leu-NH2 library, Ni^2+ 2 mM, pH 8.2, 10 mM Tris, score=24/tm
In short: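 Peptide sublibraries CH3CO-Gly-Ala-Ser/Thr-X-His-Z-Lys-Phe-Leu-NH2 (1 mM total) incubated with 2 mM Ni^2+ in 10 mM Tris pH 8.2 at 37 °C and 45 °C. Hydrolysis products, plus loss of substrate signals, detected by MALDI-TOF at 2, 4, 6 and 8 h; residues X and Z scored and ranked.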

Ac-GASVHEKFL-NH2 [SVHE]
hydrolysis score from MALDI-TOF screening (37° C.): 0 (a score of 0 if no trace of the product of hydrolysis was seen after 8 hours of incubation) | hydrolysis score from MALDI-TOF screening (45° C.): 0 (a score of 0 if no trace of the product of hydrolysis was seen after 8 hours of incubation)

Ac-GASVHFKFL-NH2 [SVHF]
hydrolysis score from MALDI-TOF screening (37° C.): 0 (a score of 0 if no trace of the product of hydrolysis was seen after 8 hours of incubation) | hydrolysis score from MALDI-TOF screening (45° C.): 3 (a score of 3 for detection at 8 hours)

Ac-GASVHGKFL-NH2 [SVHG]
hydrolysis score from MALDI-TOF screening (37° C.): 0 (a score of 0 if no trace of the product of hydrolysis was seen after 8 hours of incubation) | hydrolysis score from MALDI-TOF screening (45° C.): 0 (a score of 0 if no trace of the product of hydrolysis was seen after 8 hours of incubation)

Ac-GASVHHKFL-NH2 [SVHH]
hydrolysis score from MALDI-TOF screening (37° C.): 3 (a score of 3 for detection at 8 hours) | hydrolysis score from MALDI-TOF screening (45° C.): 3 (a score of 3 for detection at 8 hours)

Ac-GASVHIKFL-NH2 [SVHI]
hydrolysis score from MALDI-TOF screening (37° C.): 3 (a score of 3 for detection at 8 hours) | hydrolysis score from MALDI-TOF screening (45° C.): 3 (a score of 3 for detection at 8 hours)

Ac-GASVHKKFL-NH2 [SVHK]
hydrolysis score from MALDI-TOF screening (37° C.): 3 (a score of 3 for detection at 8 hours) | hydrolysis score from MALDI-TOF screening (45° C.): 4 (a score of 4 for detection at 6 hours)

Ac-GASVHLKFL-NH2 [SVHL]
hydrolysis score from MALDI-TOF screening (37° C.): 3 (a score of 3 for detection at 8 hours) | hydrolysis score from MALDI-TOF screening (45° C.): 3 (a score of 3 for detection at 8 hours)

Ac-GASVHMKFL-NH2 [SVHM]
hydrolysis score from MALDI-TOF screening (37° C.): 0 (a score of 0 if no trace of the product of hydrolysis was seen after 8 hours of incubation) | hydrolysis score from MALDI-TOF screening (45° C.): 0 (a score of 0 if no trace of the product of hydrolysis was seen after 8 hours of incubation)

Ac-GASVHNKFL-NH2 [SVHN]
hydrolysis score from MALDI-TOF screening (37° C.): 0 (a score of 0 if no trace of the product of hydrolysis was seen after 8 hours of incubation) | hydrolysis score from MALDI-TOF screening (45° C.): 0 (a score of 0 if no trace of the product of hydrolysis was seen after 8 hours of incubation)

Ac-GASVHPKFL-NH2 [SVHP]
hydrolysis score from MALDI-TOF screening (37° C.): 0 (a score of 0 if no trace of the product of hydrolysis was seen after 8 hours of incubation) | hydrolysis score from MALDI-TOF screening (45° C.): 0 (a score of 0 if no trace of the product of hydrolysis was seen after 8 hours of incubation)

Ac-GASVHQKFL-NH2 [SVHQ]
hydrolysis score from MALDI-TOF screening (37° C.): 0 (a score of 0 if no trace of the product of hydrolysis was seen after 8 hours of incubation) | hydrolysis score from MALDI-TOF screening (45° C.): 0 (a score of 0 if no trace of the product of hydrolysis was seen after 8 hours of incubation)

Ac-GASVHRKFL-NH2 [SVHR]
hydrolysis score from MALDI-TOF screening (37° C.): 3 (a score of 3 for detection at 8 hours) | hydrolysis score from MALDI-TOF screening (45° C.): 3 (a score of 3 for detection at 8 hours)

Ac-GASVHSKFL-NH2 [SVHS]
hydrolysis score from MALDI-TOF screening (37° C.): 0 (a score of 0 if no trace of the product of hydrolysis was seen after 8 hours of incubation) | hydrolysis score from MALDI-TOF screening (45° C.): 0 (a score of 0 if no trace of the product of hydrolysis was seen after 8 hours of incubation)

Ac-GASVHTKFL-NH2 [SVHT]
hydrolysis score from MALDI-TOF screening (37° C.): 0 (a score of 0 if no trace of the product of hydrolysis was seen after 8 hours of incubation) | hydrolysis score from MALDI-TOF screening (45° C.): 0 (a score of 0 if no trace of the product of hydrolysis was seen after 8 hours of incubation)

Ac-GASVHVKFL-NH2 [SVHV]
hydrolysis score from MALDI-TOF screening (37° C.): 0 (a score of 0 if no trace of the product of hydrolysis was seen after 8 hours of incubation) | hydrolysis score from MALDI-TOF screening (45° C.): 3 (a score of 3 for detection at 8 hours)

Ac-GASVHWKFL-NH2 [SVHW]
hydrolysis score from MALDI-TOF screening (37° C.): 4 (a score of 4 for detection at 6 hours) | hydrolysis score from MALDI-TOF screening (45° C.): 4 (a score of 4 for detection at 6 hours)

Ac-GASVHYKFL-NH2 [SVHY]
hydrolysis score from MALDI-TOF screening (37° C.): 0 (a score of 0 if no trace of the product of hydrolysis was seen after 8 hours of incubation) | hydrolysis score from MALDI-TOF screening (45° C.): 3 (a score of 3 for detection at 8 hours)

Ac-GASWHAKFL-NH2 [SWHA]
hydrolysis score from MALDI-TOF screening (37° C.): 0 (a score of 0 if no trace of the product of hydrolysis was seen after 8 hours of incubation) | hydrolysis score from MALDI-TOF screening (45° C.): 3 (a score of 3 for detection at 8 hours)

Ac-GASWHDKFL-NH2 [SWHD]
hydrolysis score from MALDI-TOF screening (37° C.): 0 (a score of 0 if no trace of the product of hydrolysis was seen after 8 hours of incubation) | hydrolysis score from MALDI-TOF screening (45° C.): 0 (a score of 0 if no trace of the product of hydrolysis was seen after 8 hours of incubation)

Ac-GASWHEKFL-NH2 [SWHE]
hydrolysis score from MALDI-TOF screening (37° C.): 0 (a score of 0 if no trace of the product of hydrolysis was seen after 8 hours of incubation) | hydrolysis score from MALDI-TOF screening (45° C.): 0 (a score of 0 if no trace of the product of hydrolysis was seen after 8 hours of incubation)

Ac-GASWHFKFL-NH2 [SWHF]
hydrolysis score from MALDI-TOF screening (37° C.): 3 (a score of 3 for detection at 8 hours) | hydrolysis score from MALDI-TOF screening (45° C.): 4 (a score of 4 for detection at 6 hours)

Ac-GASWHGKFL-NH2 [SWHG]
hydrolysis score from MALDI-TOF screening (37° C.): 0 (a score of 0 if no trace of the product of hydrolysis was seen after 8 hours of incubation) | hydrolysis score from MALDI-TOF screening (45° C.): 3 (a score of 3 for detection at 8 hours)

Ac-GASWHHKFL-NH2 [SWHH]
hydrolysis score from MALDI-TOF screening (37° C.): 4 (a score of 4 for detection at 6 hours) | hydrolysis score from MALDI-TOF screening (45° C.): 3 (a score of 3 for detection at 8 hours)

Ac-GASWHIKFL-NH2 [SWHI]
hydrolysis score from MALDI-TOF screening (37° C.): 6 (a score of 6 for detection at 4 hours) | hydrolysis score from MALDI-TOF screening (45° C.): 12 (a score of 12, if it was seen to be partially hydrolysed at 2 hours)

Ac-GASWHKKFL-NH2 [SWHK]
hydrolysis score from MALDI-TOF screening (37° C.): 4 (a score of 4 for detection at 6 hours) | hydrolysis score from MALDI-TOF screening (45° C.): 12 (a score of 12, if it was seen to be partially hydrolysed at 2 hours)

Ac-GASWHLKFL-NH2 [SWHL]
hydrolysis score from MALDI-TOF screening (37° C.): 6 (a score of 6 for detection at 4 hours) | hydrolysis score from MALDI-TOF screening (45° C.): 12 (a score of 12, if it was seen to be partially hydrolysed at 2 hours)

Ac-GASWHMKFL-NH2 [SWHM]
hydrolysis score from MALDI-TOF screening (37° C.): 0 (a score of 0 if no trace of the product of hydrolysis was seen after 8 hours of incubation) | hydrolysis score from MALDI-TOF screening (45° C.): 3 (a score of 3 for detection at 8 hours)

Ac-GASWHNKFL-NH2 [SWHN]
hydrolysis score from MALDI-TOF screening (37° C.): 0 (a score of 0 if no trace of the product of hydrolysis was seen after 8 hours of incubation) | hydrolysis score from MALDI-TOF screening (45° C.): 0 (a score of 0 if no trace of the product of hydrolysis was seen after 8 hours of incubation)

Ac-GASWHPKFL-NH2 [SWHP]
hydrolysis score from MALDI-TOF screening (37° C.): 0 (a score of 0 if no trace of the product of hydrolysis was seen after 8 hours of incubation) | hydrolysis score from MALDI-TOF screening (45° C.): 0 (a score of 0 if no trace of the product of hydrolysis was seen after 8 hours of incubation)

Ac-GASWHQKFL-NH2 [SWHQ]
hydrolysis score from MALDI-TOF screening (37° C.): 0 (a score of 0 if no trace of the product of hydrolysis was seen after 8 hours of incubation) | hydrolysis score from MALDI-TOF screening (45° C.): 0 (a score of 0 if no trace of the product of hydrolysis was seen after 8 hours of incubation)

Ac-GASWHRKFL-NH2 [SWHR]
hydrolysis score from MALDI-TOF screening (37° C.): 3 (a score of 3 for detection at 8 hours) | hydrolysis score from MALDI-TOF screening (45° C.): 6 (a score of 6 for detection at 4 hours)

Ac-GASWHSKFL-NH2 [SWHS]
hydrolysis score from MALDI-TOF screening (37° C.): 0 (a score of 0 if no trace of the product of hydrolysis was seen after 8 hours of incubation) | hydrolysis score from MALDI-TOF screening (45° C.): 0 (a score of 0 if no trace of the product of hydrolysis was seen after 8 hours of incubation)

Ac-GASWHTKFL-NH2 [SWHT]
hydrolysis score from MALDI-TOF screening (37° C.): 0 (a score of 0 if no trace of the product of hydrolysis was seen after 8 hours of incubation) | hydrolysis score from MALDI-TOF screening (45° C.): 0 (a score of 0 if no trace of the product of hydrolysis was seen after 8 hours of incubation)

Ac-GASWHVKFL-NH2 [SWHV]
hydrolysis score from MALDI-TOF screening (37° C.): 3 (a score of 3 for detection at 8 hours) | hydrolysis score from MALDI-TOF screening (45° C.): 12 (a score of 12, if it was seen to be partially hydrolysed at 2 hours)

Ac-GASWHWKFL-NH2 [SWHW]
hydrolysis score from MALDI-TOF screening (37° C.): 4 (a score of 4 for detection at 6 hours) | hydrolysis score from MALDI-TOF screening (45° C.): 6 (a score of 6 for detection at 4 hours)

Ac-GASWHYKFL-NH2 [SWHY]
hydrolysis score from MALDI-TOF screening (37° C.): 0 (a score of 0 if no trace of the product of hydrolysis was seen after 8 hours of incubation) | hydrolysis score from MALDI-TOF screening (45° C.): 6 (a score of 6 for detection at 4 hours)

Ac-GASYHAKFL-NH2 [SYHA]
hydrolysis score from MALDI-TOF screening (37° C.): 0 (a score of 0 if no trace of the product of hydrolysis was seen after 8 hours of incubation) | hydrolysis score from MALDI-TOF screening (45° C.): 0 (a score of 0 if no trace of the product of hydrolysis was seen after 8 hours of incubation)

Ac-GASYHDKFL-NH2 [SYHD]
hydrolysis score from MALDI-TOF screening (37° C.): 0 (a score of 0 if no trace of the product of hydrolysis was seen after 8 hours of incubation) | hydrolysis score from MALDI-TOF screening (45° C.): 0 (a score of 0 if no trace of the product of hydrolysis was seen after 8 hours of incubation)

Ac-GASYHEKFL-NH2 [SYHE]
hydrolysis score from MALDI-TOF screening (37° C.): 0 (a score of 0 if no trace of the product of hydrolysis was seen after 8 hours of incubation) | hydrolysis score from MALDI-TOF screening (45° C.): 0 (a score of 0 if no trace of the product of hydrolysis was seen after 8 hours of incubation)

Ac-GASYHFKFL-NH2 [SYHF]
hydrolysis score from MALDI-TOF screening (37° C.): 3 (a score of 3 for detection at 8 hours) | hydrolysis score from MALDI-TOF screening (45° C.): 4 (a score of 4 for detection at 6 hours)

Ac-GASYHGKFL-NH2 [SYHG]
hydrolysis score from MALDI-TOF screening (37° C.): 0 (a score of 0 if no trace of the product of hydrolysis was seen after 8 hours of incubation) | hydrolysis score from MALDI-TOF screening (45° C.): 0 (a score of 0 if no trace of the product of hydrolysis was seen after 8 hours of incubation)

Ac-GASYHHKFL-NH2 [SYHH]
hydrolysis score from MALDI-TOF screening (37° C.): 4 (a score of 4 for detection at 6 hours) | hydrolysis score from MALDI-TOF screening (45° C.): 4 (a score of 4 for detection at 6 hours)
